From PMC5051147, “Ester Hydrolysis Differentially Reduces Aconitine-Induced Anti-hypersensitivity and Acute Neurotoxicity: Involvement of Spinal Microglial Dynorphin Expression and Implications for Aconitum Processing” (Frontiers in Pharmacology, 2016)
“Also recorded” adds a separate entry of the source.

Experiments:
[1] = tested on: prodynorphin gene expression in primary cultures of spinal microglia; assay: Prodynorphin gene expression in cultured primary spinal microglia (real-time quantitative PCR); format: cell-based, rat
Method: Glial cells were isolated from the 1-day-old neonatal rats. The isolated spinal cords were minced and then incubated with trypsin. Dissociated cells were suspended in 75-cm^2 tissue culture flasks (1 × 10^7 cells/flask) precoated with poly-L-lysine and maintained in a 5% CO2 incubator at 37°C. After culture for 10 days, the microglial cells were prepared as floating cell suspensions by shaking the flask at 260 rpm for 2 h. The aliquots were transferred to plates, and the unattached cells were removed by washing with serum-free Dulbecco’s modified Eagle’s medium.
RNA extraction, reverse transcription, and real-time quantitative PCR were performed as previously described ([Chen et al., 2012]). The spinal lumbar enlargements of rats were collected and mechanically homogenized with an electronic microhomogenizer at 4,000 rpm for 10 s in TRIzol on ice. Total RNA from the spinal lumbar enlargements were isolated using TRIzol reagent (Invitrogen, Grand Island, NY, USA). A 1-μg sample of total RNA was reverse-transcribed with a ReverTra Ace qPCR RT-Kit (Toyobo, Japan). Real-time quantitative PCR was carried out with the Mastercycler ep realplex (Eppendorf, Germany) using the RealmasterMix (SYBR Green I) (Toyobo). The fold change was calculated with the 2^-ΔΔCt method after normalization to the gene of gapdh. […]
The percentage of maximal possible effect (% MPE) was calculated using the following formula: (postdrug threshold in ipsilateral hindlimb – baseline threshold in ipsilateral hindlimb)/(baseline threshold in contralateral hindlimb – baseline threshold in ipsilateral hindlimb) × 100 ([Bowersox et al., 1996]). […] For the dose-response curve analysis, the parameters (i.e., minimum effect; Emax, median effective concentration or dose, or median toxic or lethal dose [EC50, ED50, TD50, or LD50], and Hill coefficient [n]) were calculated from the individual dose-response curves using the Prism program (version 5.01, GraphPad Software, San Diego, CA, USA). […]
Primary cultures of microglial cells taken from the spinal cords of the neonatal rats were treated with a variety of concentrations of aconitine (1 × 10^-8, 3 × 10^-8, 1 × 10^-7, 3 × 10^-7, and 1 × 10^-6 M), benzolyaconine (3 × 10^-7, 1 × 10^-6, 3 × 10^-6, 1 × 10^-5, 3 × 10^-5, and 1 × 10^-4 M) and aconine (1 × 10^-4, 3 × 10^-4, 1 × 10^-3, 3 × 10^-3, and 1 × 10^-2 M) for 2 h. As the bulleyaconitine A-increased dynorphin A level measured by the enzyme-linked immunosorbent assay was in parallel with the prodynorphin gene expression in spinal microglia from neonatal and adult rats ([Li et al., 2016]), the expression of the cellular prodynorphin gene encoding dynorphin A was only measured in this study using real-time quantitative PCR. […]

[2] = tested on: spinal nerve–ligated neuropathic rats; assay: Acute spinal neurotoxicity (flaccid paralysis and death) after intrathecal injection; format: in vivo, rat; details: for LD50 (mortality) / TD50 (for flaccid paralysis): intrathecal bolus, observed 24 h; for Normalized TD50: average of TD50 (paralysis) and LD50
Method: (§1) An 18-cm polyethylene catheter (PE-10: 0.28-mm inner diameter and 0.61-mm outer diameter, Clay Adams, Parsippany, NJ, USA) with a volume of 13 μL was inserted into the lumbar level of the spinal cord as described elsewhere under inhalational isoflurane anesthesia (4% for induction and 1% for maintenance) run by an anesthesia meter (Ugo Basile Gas Anesthesia System, Comerio, Italy). Two days after recovery from anesthesia, the placement of the catheter in the spinal cord was verified by administration of 4% lidocaine (10 μL, followed by 15 μL of saline for flushing). Rats that had no motor impairment after placement of the intrathecal catheter were considered for the study, and rats that developed immediate bilateral paralysis of the hindlimbs after intrathecal administration of lidocaine were selected for the study. For intrathecal administration of the control and test articles, 10 μL of each drug was injected with a 50-μL microinjector (Shanghai Anting Micro-Injector Factory, Shanghai, China) and was flushed with 15 μL of normal saline solution.
Survival and abnormal motor-blockade behaviors, including asthma, abdominal breathing, locomotion difficulty, and paralysis, were continuously monitored for 24 h after the treatment, with special attention given during the first 4 h. Paralysis was defined as an inability to negotiate a 60-degree inclined plane ([Durant and Yaksh, 1986]). Death was defined as respiratory arrest over a period of 5 min. The paralysis and mortality rates and their latencies were quantitatively recorded and tabulated.
(§2) The percentage of maximal possible effect (% MPE) was calculated using the following formula: (postdrug threshold in ipsilateral hindlimb – baseline threshold in ipsilateral hindlimb)/(baseline threshold in contralateral hindlimb – baseline threshold in ipsilateral hindlimb) × 100 ([Bowersox et al., 1996]). A % MPE value near 100 indicates normal mechanical thresholds (i.e., near contralateral thresholds), and a value near 0 indicates allodynia. For the dose-response curve analysis, the parameters (i.e., minimum effect; Emax, median effective concentration or dose, or median toxic or lethal dose [EC50, ED50, TD50, or LD50], and Hill coefficient [n]) were calculated from the individual dose-response curves using the Prism program (version 5.01, GraphPad Software, San Diego, CA, USA). To determine the parameters of the dose-response curves, the values of response (Y) were fitted by non-linear least-squares curves to the relation Y = a + bx, where x = [D]^n/(ED50^n + [D]^n), [C]^n/(EC50^n + [C]^n), [D]^n/(TD50^n + [D]^n) or [D]^n/(LD50^n + [D]^n), to give each value of ED50, EC50, TD50, or LD50 and b (Emax) yielding a minimum residual sum of squares of deviations from the theoretical curve ([Wang and Pang, 1993]).

[3] = tested on: heat hyperalgesia in spinal L5/L6 nerve–ligated neuropathic rats; assay: Heat hyperalgesia (radiant heat paw withdrawal latency) after intrathecal injection in spinal nerve-ligated neuropathic rats; format: in vivo, rat
Method: as §1
(§3) To induce hypersensitivity to neuropathic pain, the rats were subjected to spinal nerve ligation as previously described [Kim and Chung (1992)] and [Zhang et al. (2013)]. Unilateral ligation of the L5 and L6 spinal nerves was performed under inhalational isoflurane anesthesia (4% for induction and 1% for maintenance) run by an anesthesia meter (Ugo Basile Gas Anesthesia System). The left L5 and L6 spinal nerves were isolated and tightly ligated with 6-0 silk thread. After ligation, the wound was sutured and the rats were returned to their home cages for recovery. After spinal nerve ligation, only those rats with marked unilateral allodynia to mechanical stimulation (i.e., a hindpaw withdrawal threshold of less than 8 g on the operated side) and with no major impairment were included in the study. Drug testing started 2–4 weeks after spinal nerve ligation.
To assess heat hyperalgesia, the rats were put in a plexiglass box on an elevated glass surface. After an adaptation period of at least 30 min, radiant heat was applied to the plantar medial surface of each hindpaw. The hindpaw withdrawal latency was measured with a Model 390G Plantar Test Analgesia Meter (IITC Life Science Inc.). To prevent tissue damage, the latency cutoff was set at 30 s. The paw withdrawal latency was defined as the time from the onset of radiant heat application to the withdrawal of the hindpaw. Both hindpaws were tested independently three times with a 5-min interval between trials. The result for each test was calculated as the mean of the three repeated measurements.
The percentage of maximal possible effect (% MPE) was calculated using the following formula: (postdrug threshold in ipsilateral hindlimb – baseline threshold in ipsilateral hindlimb)/(baseline threshold in contralateral hindlimb – baseline threshold in ipsilateral hindlimb) × 100 ([Bowersox et al., 1996]). A % MPE value near 100 indicates normal mechanical thresholds (i.e., near contralateral thresholds), and a value near 0 indicates allodynia. For the dose-response curve analysis, the parameters (i.e., minimum effect; Emax, median effective concentration or dose, or median toxic or lethal dose [EC50, ED50, TD50, or LD50], and Hill coefficient [n]) were calculated from the individual dose-response curves using the Prism program (version 5.01, GraphPad Software, San Diego, CA, USA). […]

[4] = tested on: mechanical allodynia in spinal L5/L6 nerve–ligated neuropathic rats; assay: Mechanical allodynia (von Frey paw withdrawal threshold) after intrathecal injection in spinal nerve-ligated neuropathic rats; format: in vivo, rat; details: for Blockade of aconitine (100 ng) anti-allodynia / Blockade of benzolyaconine (10 μg) anti-allodynia: intrathecal pretreatment: antiserum 1:10 or nor-BNI 100 μg 0.5 h earlier, minocycline 100 μg 4 h earlier; for Own effect on withdrawal responses in contralateral or ipsilateral paws: compared with saline control
Method: as §1, §3
To evaluate mechanical allodynia, the animals were acclimatized for at least 30 min to the test environment, namely, a plexiglass box on a metal grid (0.5 cm × 0.5 cm). The hindpaw withdrawal threshold was measured with a 2450 CE Electronic von Frey hair (IITC Life Science Inc, Woodland Hill, CA, USA). An electronic handheld transducer with a No. 15 monofilament was applied perpendicularly to the medial surface of the hindpaws with increasing force (ranging from 0.1 to 90 g) until the rat suddenly withdrew or licked the hindpaw. The lowest force that produced a withdrawal response was considered to be the threshold, which was the mean of three repeated measurements made in a 5-min interval.
as §2

mice = details: intravenous injection in mice; ref Mizugaki and Ito, 2005; cited from earlier work
[5] = tested on: pain hypersensitivity in spinal nerve-ligated neuropathic rats; assay: Anti-hypersensitivity, normalized (anti-allodynia and anti-hyperalgesia ED50 averaged); format: in vivo, rat
Method: as §2
Table 1 summarizes the ED50 values in mole base for aconitine, benzolyaconine, and aconine to block pain hypersensitivity. Because anti-allodynia and anti-hyperalgesia were closely correlated, their ED50 values were averaged to obtain a normalized ED50 for anti-hypersensitivity. The ED50 ratios for aconitine and benzolyaconine to block mechanical allodynia and heat hyperalgesia were 1:92 and 1:110, with a normalized ED50 ratio of 1:102.

[6] = tested on: dynorphin A expression in spinal microglia; details: 2016, cited from earlier work; for Effect on dynorphin A level / expression: spinal cord and cultured primary spinal microglia
neuropathic rats = tested on: neuropathic rats; design: method as in Li et al., 2016; details: ref Li et al., 2016; cited from earlier work
[7] = tested on: heat hyperalgesia in spinal L5/L6 nerve–ligated neuropathic rats; design: method as in Li et al., 2016; details: ref Li et al., 2016; cited from earlier work
[8] = tested on: mechanical allodynia in spinal L5/L6 nerve–ligated neuropathic rats; design: method as in Li et al., 2016; details: ref Li et al., 2016; cited from earlier work

CCN1C[C@]2(COC)[C@H](O)C[C@H](OC)[C@]34C1[C@H]([C@H](OC)[C@H]23)[C@]1(O)[C@H]2[C@@H](O)[C@](O)(C[C@H]24)[C@@H](OC)[C@@H]1O [Aconine, aconine]
Effect on prodynorphin gene (dynorphin A) expression ([1]; up to 10 mM, 2 h): did not significantly affect prodynorphin gene expression; also recorded: did not significantly stimulate the dynorphin A expression
LD50 (mortality) [2]: 1.7 µmol
TD50 (for flaccid paralysis) [2]: 1.5 µmol
Normalized TD50 ([2]; intrathecal): 1.6 µmol
Effect on heat hyperalgesia in ipsilateral paws ([3]; up to 300 μg): did not produce significant anti-allodynia or anti-hyperalgesia; also recorded: did not alter mechanical allodynia or thermal hyperalgesia
Effect on mechanical allodynia in ipsilateral paws ([4]; intrathecal, up to 300 μg): did not produce significant anti-allodynia or anti-hyperalgesia; also recorded: did not alter mechanical allodynia or thermal hyperalgesia
LD50 (mice): 120 mg/kg

CCN1CC2(COC)C(O)CC(OC)C34C5CC6(O)C(OC)C(O)C(O)(C5C6OC(=O)c5ccccc5)C(C(OC)C23)C14 (stereo not drawn) [Benzolyaconine, benzoylaconine]
EC50 ([1]; Rattus norvegicus, primary spinal microglia of neonatal rats, 2 h incubation, read-out: EC50, stimulation of prodynorphin gene (dynorphin A) expression): 3 µM
Duration of toxic motor-blockade behavior ([2]; intrathecal): 5 to 10 min
Latency of toxic motor-blockade behavior ([2]; intrathecal): 2 to 3 min
LD50 (mortality) [2]: 0.2 µmol
TD50 (for flaccid paralysis) [2]: 0.2 µmol
Normalized TD50 ([2]; intrathecal): 0.2 µmol
Emax, blockade of thermal hyperalgesia ([3]; 1 h after injection): 100 % MPE
ED50, anti-hyperalgesia ([3]; % MPE at 1 h after injection): 3.5 nmol
Normalized ED50 for anti-hypersensitivity ([5]; intrathecal, average of allodynia and hyperalgesia ED50): 3.6 nmol
Normalized ED50 relative to that of aconitine ([5]; times greater than aconitine): 102 times
Anti-allodynic effect in ipsilateral paws ([4]; intrathecal 10 μg): marked and reversible anti-allodynia
Emax, blockade of mechanical allodynia ([4]; intrathecal, 1 h after injection): 56.4 % MPE
ED50, anti-allodynia ([4]; intrathecal, % MPE at 1 h after injection): 3.6 nmol
Effect on withdrawal responses in the contralateral paws ([4]; intrathecal, mechanical and thermal stimuli): did not significantly affect the paw withdrawal responses in the contralateral paws
LD50 (mice): 23 mg/kg

C=C1C2CCC3(C4C[C@H]5C6(CCC[C@@]5(C)CN(CC)C46)[C@H]3[C@H]2O)[C@@H]1O [Bullatine A]
Effect on dynorphin A expression ([6]; microglia in the spinal cord and cultured primary microglia, ref Huang et al.): specifically stimulated dynorphin A expression

CCCCN1CCCCC1C(=O)Nc1c(C)cccc1C (stereo not drawn) [bupivacaine]
Effect on dynorphin A level / expression ([6]; ref Li et al.): did not stimulate dynorphin A expression

CCN(CC)CC(=O)Nc1c(C)cccc1C [lidocaine]
Effect on dynorphin A level / expression ([6]; ref Li et al.): did not stimulate dynorphin A expression

CN(C)c1ccc(O)c2c1C[C@H]1C[C@H]3[C@H](N(C)C)C(O)=C(C(N)=O)C(=O)[C@@]3(O)C(O)=C1C2=O [minocycline, reference compound]
Effect on antinociceptive effects of bulleyaconitine A (neuropathic rats): completely abolished the antinociceptive effects of bulleyaconitine A
Blockade of aconitine (100 ng) anti-allodynia [4]: completely prevented
Blockade of benzolyaconine (10 μg) anti-allodynia [4]: completely alleviated benzolyaconine anti-allodynia
Own effect on withdrawal responses in contralateral or ipsilateral paws ([4]; intrathecal): did not affect withdrawal thresholds

Oc1ccc2c3c1O[C@H]1c4[nH]c5c(c4C[C@@]4(O)[C@@H](C2)N(CC2CC2)CC[C@]314)C[C@@]1(O)[C@H]2Cc3ccc(O)c4c3[C@@]1(CCN2CC1CC1)[C@H]5O4 [nor-BNI, Nor-binaltorphimine, reference compound]
Blockade of aconitine (100 ng) anti-allodynia [4]: completely blocked aconitine-induced anti-allodynia
Blockade of benzolyaconine (10 μg) anti-allodynia [4]: completely alleviated benzolyaconine anti-allodynia
Own effect on withdrawal responses in contralateral or ipsilateral paws ([4]; intrathecal): did not affect the withdrawal responses

bulleyaconitine A
EC50 ([6]; ref Li et al., read-out: EC50, stimulation of microglial dynorphin A expression): 0.045 µM
Effect on dynorphin A level / expression ([6]; ref Li et al.): significantly increased the dynorphin A level
ED50, block of heat hyperalgesia [7]: 201 pmol
ED50, block of mechanical allodynia [8]: 180 pmol
